Source: article PMC9964544, “Evidence of Insulin-Sensitizing and Mimetic Activity of the Sesquiterpene Quinone Avarone, a Protein Tyrosine Phosphatase 1B and Aldose Reductase Dual Targeting Agent from the Marine Sponge Dysidea avara” (Pharmaceutics, 2023)
“Also recorded” adds a separate entry of the source.

Tests used:
Human PTP1B = molecular target: T1, Human PTP1B (Homo sapiens, UniProt P18031); assay: PTP1B inhibition assay with pNPP as substrate (IC50); format: biochemical; design: polyHis (N); made in house; conditions: 2.5 mM pNPP, 37 °C; IC50 ± SD
T1 sequence (P18031 1-302): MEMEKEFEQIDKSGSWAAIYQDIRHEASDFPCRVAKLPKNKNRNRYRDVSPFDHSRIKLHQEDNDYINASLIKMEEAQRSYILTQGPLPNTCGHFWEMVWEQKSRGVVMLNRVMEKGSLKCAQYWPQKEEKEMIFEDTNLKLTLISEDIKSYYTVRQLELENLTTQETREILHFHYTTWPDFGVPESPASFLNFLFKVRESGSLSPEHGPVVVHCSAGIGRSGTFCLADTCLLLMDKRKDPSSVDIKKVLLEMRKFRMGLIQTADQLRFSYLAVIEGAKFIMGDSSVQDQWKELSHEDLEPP
Description: The purification of human recombinant AKR1B1 was performed as previously described. […] The purified enzyme, stored at −80 °C in 10 mM sodium phosphate buffer pH 7.0 containing 2 mM DTT and 30% (w/v) glycerol, was extensively dialyzed against 10 mM sodium phosphate buffer pH 7.0 before use. […] The fractions containing PTP1B were collected, concentrated, and injected into a Superdex G75 column equilibrated with Tris-HCl buffer pH 8.0 containing 150 mM NaCl and 1 mM mercaptoethanol. The fractions containing PTP1B were collected and concentrated; the purity of preparation was evaluated using SDS-PAGE. The PTP1B preparation was split into fractions of 0.5 mL volume; each fraction was stored at −80 °C.
The standard assay mixture (final volume 0.7 mL) was contained in 0.25 M sodium phosphate buffer pH 6.8, 0.18 mM NADPH, 0.4 M ammonium sulfate, 0.5 mM EDTA, and 4.7 mM GAL. One unit of enzyme activity is the amount of enzyme that catalyzes the conversion of 1 µmol of substrate/min in the above assay conditions. The same assay conditions were adopted in the inhibition studies using L-idose as the substrate at the indicated concentrations. PTP1B activity was determined using p-nitrophenylphosphate (pNPP) as the synthetic substrate. The pNPP was dissolved in 0.075 M ββ-dimethylglutarate buffer, pH 7.0, containing 1 mM dithiothreitol. Each assay was carried out at 37 °C in 1 mL of assay buffer. The reactions were started by diluting an aliquot of PTP1B preparation in the assay buffer; after 30 min, the reactions were stopped by adding 2 mL of 0.2 M KOH solution. The amount of p-nitrophenol released was determined spectrophotometrically, reading the absorbance of solutions at 400 nm (ε400nm = 18 mM^−^1cm^−^1).

[1] = test system: human leukemia monocytic cells (THP-1); design: method as in PMID 32075136; conditions: ref [19]; cited from earlier work
C2C12 cells = assay: Glucose uptake assay (2-NBDG, flow cytometry) in C2C12 cells; format: cell-based; conditions: 30 min
Description: To evaluate the impact of avarone (2) on the insulin signaling pathway, C2C12 cells were plated on P35 dishes and grown until 70% confluence. Then, cells were washed with phosphate-buffered saline (PBS) and incubated for 24 h in the presence of a starvation medium (DMEM high glucose containing 2 mM glutamine, 100 U/mL of penicillin, and 100 μg/mL of streptomycin). After this time, cells were stimulated for 30 min with 10 nM insulin (Humulin R, Ely Lilly, Italy) with avarone (2) or the insulin-avarone combination. After this time, cells were washed with cold PBS and lysed using 100 µL of 1X Laemmli sample buffer solution (50 mM Tris-HCl pH 6.8, 2% SDS, 10% glycerol, 1% β-mercaptoethanol, 12.5 mM EDTA, 0.02% bromophenol blue). Cell proteins were withdrawn, transferred in an Eppendorf tube and boiled for 5 min. All samples were stored at −20 °C before the analysis. Analysis of samples was carried out using SDS-PAGE; after electrophoresis, proteins were transferred on a PVDF membrane by Western blot. Phosphorylation levels of the insulin receptor β chain and of the kinase Akt were evaluated using specific antibodies: IR β subunit, clone CT-3 (MABS65) was from Santa Cruz Biotechnology (Santa Cruz, CA, USA); pIR β subunit, Y1162/1163 (sc-25103-R) was from Merck-Millipore (Burlington, MA, USA). Akt (9272S) and p-Akt (9271S) antibodies were from Cell Signaling Technology (Danvers, MA, USA). Finally, β-actin and clone C-4 (sc-47778) were from Merck-Millipore (Burlington, MA, USA). Anti-rabbit and anti-mouse secondary antibodies were from Santa Cruz Biotechnology (Santa Cruz, CA, USA). Detection was performed using Clarity western ECL substrates (BioRad Laboratories, Inc. 1000 Alfred Nobel DriveHercules, CA, USA). Quantitation of the images obtained was carried out using iBright Analysis Software (Thermo Fisher Scientific 168 Third Avenue Waltham, MA, USA, 02451). Glucose uptake was evaluated as previously described. […] Intrinsic and 2-NBDG-derived cell fluorescences were determined using a flow cytometer (FACSCanto II, BD Biosciences, San Jose, CA, USA). […] Quantitative analysis was carried out using FlowJo software (FlowJo^TM v10. BD FlowJo™ Software for Windows Version 10. Ashland, OR: Becton, Dickinson and Company; 2021).
Figure 8 Glucose uptake assay. […] After, cells were washed with PBS, detached using trypsin, collected by centrifugation, and analyzed using a flow cytometer (FACSCanto II, BD Biosciences). […] For each experiment, 10,000 events were analyzed. […] (B) Quantitation of fluorescence levels. […]
Figure 9 Impact of cytochalasin B on avarone-induced glucose uptake. […] After, cells were washed and incubated for 3 h with 40 µM 2-NBDG and then analyzed using a flow cytometer (FACSCanto II, BD Biosciences). For each experiment, 10,000 events were analyzed. […]

[2] = test system: human microvascular endothelial cells (HMEC-1); design: method as in PMID 32075136; conditions: ref [19]; read-out: IC50 cytotoxicity HMEC-1; cited from earlier work

For `CC1=CCC[C@H]2[C@](C)(CC3=CC(=O)C=CC3=O)[C@@H](C)CC[C@]12C` [avarone (2), avarone], the IC50 (Human PTP1B) is given as 6.7 ± 0.6 µM, the “cytotoxicity THP-1” value [1] is given as “not cytotoxic” and the “glucose uptake (2-NBDG fluorescence), insulin-avarone combination” value (C2C12 cells; 25 µM avarone + 10 nM insulin, versus insulin alone) is given as “significantly increase”. For the same molecule, the “glucose uptake (2-NBDG fluorescence)” value (C2C12 cells; 25 µM avarone alone, then 40 µM 2-NBDG 3 h) was “higher amounts of fluorescent glucose; also recorded: stimulates glucose uptake more efficiently than insulin itself” and the IC50 [2] was 62.2 µM.
